The target in assay [1] is T1, α1C Human Adrenergic Receptor (Homo sapiens, UniProt P35348).
T1 construct: The entire coding region of α1C (1401 bp); expressed in transfected cells
T1 sequence (P35348 1-466): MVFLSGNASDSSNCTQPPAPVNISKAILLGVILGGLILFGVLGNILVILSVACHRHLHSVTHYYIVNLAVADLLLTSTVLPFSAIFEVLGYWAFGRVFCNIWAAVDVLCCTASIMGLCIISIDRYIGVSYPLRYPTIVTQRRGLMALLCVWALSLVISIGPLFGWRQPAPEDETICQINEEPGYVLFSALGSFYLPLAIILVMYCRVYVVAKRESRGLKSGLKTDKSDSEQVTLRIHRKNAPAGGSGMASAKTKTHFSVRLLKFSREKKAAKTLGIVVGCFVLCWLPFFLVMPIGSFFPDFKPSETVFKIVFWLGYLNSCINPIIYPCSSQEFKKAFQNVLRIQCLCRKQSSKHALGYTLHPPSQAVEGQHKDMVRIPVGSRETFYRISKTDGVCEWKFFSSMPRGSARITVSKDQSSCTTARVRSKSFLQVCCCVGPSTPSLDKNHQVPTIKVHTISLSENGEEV
Briefly: Radioligand binding, [3H]prazosin, cloned human α1C adrenergic receptor. The note with it: LM(tk-) cell membranes. In short, it runs like this: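 Membranes from LM(tk−) cells stably expressing the cloned human α1C receptor were incubated with 0.5 nM [3H]prazosin at 37° C. for 20 min in 50 mM Tris-HCl, 1 mM MgCl2, 0.1% ascorbic acid, pH 7.5. Nonspecific binding was defined with 10 μM phentolamine, and bound ligand was separated by GF/B filtration.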

Assay [2] has as its target T2, α2B receptor (Homo sapiens, UniProt P18089).
T2 construct: host or cells: LM(tk-) cells, line L-NGC-α2B
T2 sequence (P18089 1-450): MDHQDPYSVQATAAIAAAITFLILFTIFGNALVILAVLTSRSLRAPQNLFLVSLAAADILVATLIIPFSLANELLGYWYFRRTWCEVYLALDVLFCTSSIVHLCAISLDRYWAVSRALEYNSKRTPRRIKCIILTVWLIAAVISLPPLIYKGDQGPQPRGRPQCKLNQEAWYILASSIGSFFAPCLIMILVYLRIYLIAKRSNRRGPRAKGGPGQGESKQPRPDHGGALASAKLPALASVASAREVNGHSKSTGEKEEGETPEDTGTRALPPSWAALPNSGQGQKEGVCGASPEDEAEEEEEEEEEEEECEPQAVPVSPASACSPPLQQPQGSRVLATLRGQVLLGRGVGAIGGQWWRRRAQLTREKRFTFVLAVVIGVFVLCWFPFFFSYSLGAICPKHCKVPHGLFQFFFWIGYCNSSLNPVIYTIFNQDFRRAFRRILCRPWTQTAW
Briefly: Competition binding, [3H]rauwolscine, human α2B receptor. Put shortly:
(§1)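 Filter-bound [3H]rauwolscine (0.5 nM) was measured after equilibrium competition with test antagonists on lysates of LM(tk−) cells stably transfected with each human α2 subtype. Buffer: 25 mM glycylglycine, pH 7.6 at room temperature; 10 μM phentolamine gave nonspecific binding.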

The target of assay [3] is T3, α2C receptor (Homo sapiens, UniProt P18825).
T3 construct: host or cells: LM(tk-) cells, line L-α2C
T3 sequence (P18825 1-462): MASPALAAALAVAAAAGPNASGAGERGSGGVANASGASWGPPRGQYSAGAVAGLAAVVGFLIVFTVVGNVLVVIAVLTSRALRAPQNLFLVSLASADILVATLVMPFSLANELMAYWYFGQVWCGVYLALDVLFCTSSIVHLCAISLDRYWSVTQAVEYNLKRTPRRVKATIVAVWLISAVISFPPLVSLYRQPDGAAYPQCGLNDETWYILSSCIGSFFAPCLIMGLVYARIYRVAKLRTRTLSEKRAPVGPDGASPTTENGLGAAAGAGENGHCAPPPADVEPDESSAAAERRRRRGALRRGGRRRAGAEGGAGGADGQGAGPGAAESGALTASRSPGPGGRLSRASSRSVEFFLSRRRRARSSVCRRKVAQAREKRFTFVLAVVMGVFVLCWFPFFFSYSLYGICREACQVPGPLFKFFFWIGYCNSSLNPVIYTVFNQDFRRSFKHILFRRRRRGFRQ
Briefly: Competition binding, [3H]rauwolscine, human α2C receptor. Put shortly:
as §1

[4] abbreviates: cloned human receptor, mean, read-out: PKi alpha-1 1c (converted).
[5] abbreviates: [3H]rauwolscine, human receptor, LM(tk-) cell lysates, mean.
The mark [6] stands for this setting: [3H]rauwolscine, human receptor, LM(tk-) cell lysates, mean, read-out: PKi alpha-2 2b (converted).
Where [7] appears, read: [3H]rauwolscine, human receptor, LM(tk-) cell lysates, mean, read-out: PKi alpha-2 2c (converted).
Setting [8] is: PKi alpha-1 1c, cloned human α1C receptor.
The mark [9] stands for this setting: PKi alpha-2 2b, [3H]rauwolscine, human α2B receptor, LM(tk-) cells.
Setting [10] is: PKi alpha-2 2c, [3H]rauwolscine, human α2C receptor, LM(tk-) cells.
[11] abbreviates: cloned human α1C receptor, read-out: PKi alpha-1 1c (converted).

Like-named read-outs stand apart in the source and are kept apart here.

Regarding `CCOC(=O)C1(c2ccccc2)CCN(CCCNC(=O)C2=C(COCCN)NC(CC)=C(C(=O)OC)C2c2ccc([N+](=O)[O-])cc2)CC1` (stereo not drawn) [Example 197, 2-[(2-Aminoethoxy)methyl]-3-{N-[3-(4-ethoxycarbonyl-4-phenylpiperidin-1-yl)propyl]}carboxamido-1,4-dihydro-6-ethyl-5-methoxycarbonyl-4-(4-nitrophenyl) pyridine], the Ki in assay [1] (setting [4]) is 0.55 nM; in assay [2] (PKi alpha-2 2b), 2340 nM; in assay [3] (PKi alpha-2 2c), 513 nM.
Take `CCC1=C(C(N)=O)C(c2ccc([N+](=O)[O-])cc2)C(C(=O)NCCCN2CCC(C(=O)OC)(c3ccccc3)CC2)=C(CC)N1` (stereo not drawn) [Example 200]: the Ki in assay [1] (setting [4]) was 4.37 nM; in assay [2] (PKi alpha-2 2b) it was 1070 nM; in assay [3] (PKi alpha-2 2c) it was 1620 nM.
On to `CC1=C(C(N)=O)C(c2ccc([N+](=O)[O-])cc2)C(C(=O)NCCCN2CCC(C(=O)OCCC#N)(c3ccccc3)CC2)=CN1C` (stereo not drawn) [Example 209, 5-Carboxamido-3-{N-[3-(4-(2-cyanoethoxycarbonyl)-4-phenylpiperidin-1-yl)propyl]}carboxamido-1,4-dihydro-1,6-dimethyl-4-(4-nitrophenyl) pyridine], for which the “PKi alpha-1 1c” value in assay [1] (cloned human receptor, mean) was found to be 8.41. In addition, the “PKi alpha-2 2b” value in assay [2] (setting [5]) worked out at 6.46. For the same compound, the “PKi alpha-2 2c” value in assay [3] (setting [5]) is 5.70.
Take `CC1=C(C(N)=O)C(c2ccc([N+](=O)[O-])cc2)C(C(=O)NCCCN2CCC(C(=O)O)(c3ccccc3)CC2)=C(C)N1` (stereo not drawn) [Example 210, 5-Carboxamido-3-{N-[3-(4-carboxy-4-phenylpiperidin-1-yl)propyl]}carboxamido-1,4-dihydro-2,6-dimethyl-4-(4-nitrophenyl)pyridine]: the Ki is 93.3 nM in assay [1] (setting [4]), 23400 nM in assay [2] (PKi alpha-2 2b) and 21900 nM in assay [3] (PKi alpha-2 2c).
For `CCC1=C(C(=O)NC)C(c2ccc([N+](=O)[O-])cc2)C(C(=O)NCCCN2CCC(c3ccccc3)(c3ccccc3)CC2)=C(COCCN)N1` (stereo not drawn) [Example 225, 2-((2-Aminoethyl)oxy)methyl-6-ethyl-1,4-dihydro-5-N-methylcarboxamido-4-(4-nitro)phenyl-3-(3-(N-(4,4-diphenylpiperidin-1-yl)propyl))carboxamidopyridine] the same measures were 3.98 nM, 2510 nM and 417 nM.
As for `CCC1=C(C(=O)NC)C(c2ccc([N+](=O)[O-])cc2)C(C(=O)NCCCN2CCC(C(=O)OC)(c3ccccc3)CC2)=C(COCCN)N1` (stereo not drawn) [Example 229, 2-((2-Aminoethyl)oxy)methyl-6-ethyl-1,4-dihydro-3-(N-(3-(4-methoxycarbonyl-4-phenylpiperidin-1-yl)propyl))carbo xamido-5-N-methylcarboxamido-4-(4-nitro)phenylpyridine], the Ki in assay [1] (setting [4]) is 7.08 nM; in assay [2] (setting [6]), 5370 nM; in assay [3] (setting [7]) it was 891 nM.
Turning to `CCNC(=O)C1=C(CC)NC(COCCN)=C(C(=O)NCCCN2CCC(C(=O)OC)(c3ccccc3)CC2)C1c1ccc([N+](=O)[O-])cc1` (stereo not drawn) [Example 233, 2-((2-Aminoethyl)oxy)methyl-6-ethyl-5-N-ethylcarboxamido-1,4-dihydro-3-(N-(3-(4-methoxycarbonyl-4-phenylpiperidin-1-yl)propyl))carboxamido-4-(4-nitro)phenylpyridine], the figures for the Ki in assay [1] (setting [4]), in assay [2] (PKi alpha-2 2b) and in assay [3] (PKi alpha-2 2c) were 2.14 nM, 8710 nM and 1660 nM, respectively.
Regarding `CCC1=C(C(N)=O)C(c2ccc([N+](=O)[O-])cc2)C(C(=O)NCCCN2CCC(C(=O)OC)(c3ccccc3)CC2)=C(COCCN)N1` (stereo not drawn) [Example 234, 2-((2-Aminoethyl)oxy)methyl-5-carboxamido-6-ethyl-1,4-dihydro-3-(N-(3-(4-methoxycarbonyl-4-phenylpiperidin-1-yl)propyl)) carboxamido-4-(4-nitro)phenylpyridine], the Ki in assay [1] (setting [4]) is 1.62 nM; in assay [2] (setting [6]), 4900 nM; in assay [3] (setting [7]), 832 nM.
On to `CCC1=C(C(=O)OC)C(c2ccc([N+](=O)[O-])cc2)C(C(=O)NCCCN2CCC(C(=O)OC)(c3ccccc3)CC2)=C(COCCN)N1` (stereo not drawn) [Example 235, 2-((2-Aminoethyl)oxy)methyl-6-ethyl-1,4-dihydro-5-methoxycarbonyl-3-(N-(3-(4-methoxycarbonyl-4-phenylpiperidin-1-yl)propyl))carboxamido-4-(4-nitro)phenylpyridine], for which the figures for the Ki in assay [1] (setting [4]), in assay [2] (PKi alpha-2 2b) and in assay [3] (PKi alpha-2 2c) were 2.09 nM, 2950 nM and 1020 nM, respectively.
`CC(=O)C1=C(C)NC(COCCN)=C(C(=O)NCCCN2CCC(c3ccccc3)(c3ccccc3)CC2)C1c1ccc([N+](=O)[O-])cc1` (stereo not drawn) [Example 237, 5-Acetyl-2-((2-aminoethyl)oxy)methyl-1,4-dihydro-6-methyl-4-(4-nitro)phenyl 3-(N-(3-(4,4-diphenylpiperidin-1-yl)propyl)) carboxamidopyridine]: the Ki in assay [1] (PKi alpha-1 1c, cloned human receptor, mean) was 2.63 nM; in assay [2] (PKi alpha-2 2b, [3H]rauwolscine, human receptor, LM(tk-) cell lysates, mean), 851 nM; in assay [3] (setting [7]), 324 nM.
In the case of `CC(=O)C1=C(C)NC(COCCN)=C(C(=O)NCCCN2CCC(c3ccccc3)(c3ccccc3)CC2)C1c1ccc2c(c1)OCO2` (stereo not drawn) [Example 239, 5-Acetyl-2-((2-aminoethyl)oxy)methyl-1,4-dihydro-6-methyl-4-(3,4-methylenedioxy)phenyl-3-(N-(3-(4,4-dipheylpiperidin-1-yl)propyl))carboxamidopyridine], the Ki in assay [1] (setting [8]) was 2.04 nM; in assay [2] (setting [9]) it was 759 nM; in assay [3] (setting [10]), 263 nM.
As to `CCOC(=O)C1(c2ccccc2)CCN(CCCNC(=O)C2=C(COC)NC(CC)=C(C(=O)O)C2c2ccc([N+](=O)[O-])cc2)CC1` (stereo not drawn) [Example 240, 3-(N-3-(4-Ethoxycarbonyl-4-phenylpiperidin-1-yl)propyl)carboxamido-6-ethyl-1,4-dihydro-2-(methyloxy)methyl-4-(4-nitro)phenylpyridine-5-carboxylic Acid], the figures for the Ki in assay [1] (setting [11]), in assay [2] (PKi alpha-2 2b) and in assay [3] (PKi alpha-2 2c) were 26.9 nM, 6310 nM and 11700 nM, respectively.
For `COC(=O)C1(c2ccccc2)CCN(CCCNC(=O)C2=C(COCCCN)NC(C)=C(C(C)=O)C2c2ccc([N+](=O)[O-])cc2)CC1` (stereo not drawn) [Example 241, 5-Acetyl-2-((3-aminopropyl)oxy)methyl-1,4-dihydro-3-(N-(3-(4-methoxycarbonyl-4-phenylpiperidin-1-yl)propyl))carboxamido-6-methyl-4-(4-nitro)phenylpyridine], the Ki in assay [1] (setting [11]) was 4.37 nM; in assay [2] (PKi alpha-2 2b), 1170 nM; in assay [3] (PKi alpha-2 2c), 398 nM.
Turning to `CC(=O)C1=C(C)NC(COCCN)=C(C(=O)NCCCN2CCC(c3ccccc3)(c3ccccc3)CC2)C1c1ccc(F)cc1` (stereo not drawn) [Example 242, 5-Acetyl-2-((2-aminoethyl)oxy)methyl-4-(4-fluoro)phenyl-1,4-dihydro-6-methyl-3-(N-(3-(4,4-diphenylpiperidin-1-yl)propyl))carboxamidopyridine], the Ki in assay [1] (setting [8]) is 3.98 nM; in assay [2] (setting [9]), 933 nM; in assay [3] (setting [10]) it was 257 nM.

Source of the values: patent US6608086B2, “Dihydropyridines and new uses thereof” (Synaptic Pharmaceutical Corporation, priority 1993, dated 2003).
